Source: patent US11541093B2, “Pharmacological use of Cimicifuga extract” (Max Zeller Soehne AG, priority 2012, dated 2023)

Experiments:
male ob/ob mice [1] = assay: Body weight in male ob/ob mice; format: in vivo
Source text: (§1) The effects of oral 7-day administration of a Cimicifuga racemosa extract prepared according to example 1 and designated Ze 450 on body weight, daily food and water intake as well as glucose control were investigated in male ob/ob mice as follows. The ob/ob mouse is a well-characterized and representative in-vivo model of obesity and diabetes in mammals, in particular humans, wherein both disorders are the result of a mutation in the ob gene which encodes leptin. In the study metformin was the positive control.
(§2) Body weight, food and water intake were measured daily from 6 days before dosing to 6 days after dosing started. Animals were fasted overnight on Day 6 for an oral glucose tolerance test (OGTT) on Day 7. The animals also had freely fed bleeds on Day −4 and Day 6. […]
(§3) All treatments were dosed orally by gavage […] once daily. During the treatment period food intake, water intake and body weight were recorded daily at the dosing session. After dosing the animals were examined and any overt behavior was recorded. […]
(§4) Body weights, food intake and water intake were expressed as mean values ±SEM. Body weight, body weight gain, daily and average food and water intake data and cumulative food intake were analyzed by ANCOVA with baseline as a covariate, followed by appropriate comparisons (two-tailed) to determine significant differences from the appropriate control group. […]

male ob/ob mice [2] = assay: Daily water intake in male ob/ob mice; format: in vivo; details: metformin PO; p=0.002
Source text: as §1, §2, §3, §4

diabetic rats = details: intravenously at 5 and 10 mg/kg; cited from earlier work

Structure (SMILES) | effect on overall body weight (male ob/ob mice [1]; metformin 200 mg/kg PO, after 6 days of treatment) | cumulative body weight over the 6 treatment days (male ob/ob mice [1]; metformin PO, compared to its control group) | average weekly water intake (male ob/ob mice [2]) | plasma glucose levels (diabetic rats)
CN(C)C(=N)N=C(N)N [metformin] | no significant effect | virtually no reduction | significant (p=0.002) reduction | 
COc1ccc(/C=C/C(=O)O)cc1O [isoferulic acid] |  |  |  | will lower plasma glucose levels
